Legend:
FLT-4 (h) (VEGFR3) = FLT-4 (h) (VEGFR3) (Homo sapiens, UniProt P35916); assay: Biochemical kinase assay (CEREP); conditions: for IC50: 10 μM ATP, performed by CEREP
Experimental: We tested all synthetic compounds against a panel of kinases in a biochemical assay. Each data point was measured in duplicate (technical replicates). […] Additional kinase binding studies were performed vs. a select group of functionally and structurally divergent kinases including AAK1 (Adaptor-associated protein kinase 1), BMP2K (BMP-2-inducible protein kinase, where BMP is bone morphogenic protein), GAK (Cyclin G-associated kinase) and STK16 (Serine/threonine-protein kinase 16) (Table 1).

PDGFRα (h) = PDGFRα (h) (Homo sapiens, UniProt P16234); assay: Biochemical kinase assay (CEREP); conditions: for IC50: 10 μM ATP, performed by CEREP
[1] = biological target: T1, GAK (Cyclin G-associated kinase) (Homo sapiens, UniProt O14976); assay: Kinase binding displacement assay; conditions: no ATP present
T1 sequence (O14976 1-1311): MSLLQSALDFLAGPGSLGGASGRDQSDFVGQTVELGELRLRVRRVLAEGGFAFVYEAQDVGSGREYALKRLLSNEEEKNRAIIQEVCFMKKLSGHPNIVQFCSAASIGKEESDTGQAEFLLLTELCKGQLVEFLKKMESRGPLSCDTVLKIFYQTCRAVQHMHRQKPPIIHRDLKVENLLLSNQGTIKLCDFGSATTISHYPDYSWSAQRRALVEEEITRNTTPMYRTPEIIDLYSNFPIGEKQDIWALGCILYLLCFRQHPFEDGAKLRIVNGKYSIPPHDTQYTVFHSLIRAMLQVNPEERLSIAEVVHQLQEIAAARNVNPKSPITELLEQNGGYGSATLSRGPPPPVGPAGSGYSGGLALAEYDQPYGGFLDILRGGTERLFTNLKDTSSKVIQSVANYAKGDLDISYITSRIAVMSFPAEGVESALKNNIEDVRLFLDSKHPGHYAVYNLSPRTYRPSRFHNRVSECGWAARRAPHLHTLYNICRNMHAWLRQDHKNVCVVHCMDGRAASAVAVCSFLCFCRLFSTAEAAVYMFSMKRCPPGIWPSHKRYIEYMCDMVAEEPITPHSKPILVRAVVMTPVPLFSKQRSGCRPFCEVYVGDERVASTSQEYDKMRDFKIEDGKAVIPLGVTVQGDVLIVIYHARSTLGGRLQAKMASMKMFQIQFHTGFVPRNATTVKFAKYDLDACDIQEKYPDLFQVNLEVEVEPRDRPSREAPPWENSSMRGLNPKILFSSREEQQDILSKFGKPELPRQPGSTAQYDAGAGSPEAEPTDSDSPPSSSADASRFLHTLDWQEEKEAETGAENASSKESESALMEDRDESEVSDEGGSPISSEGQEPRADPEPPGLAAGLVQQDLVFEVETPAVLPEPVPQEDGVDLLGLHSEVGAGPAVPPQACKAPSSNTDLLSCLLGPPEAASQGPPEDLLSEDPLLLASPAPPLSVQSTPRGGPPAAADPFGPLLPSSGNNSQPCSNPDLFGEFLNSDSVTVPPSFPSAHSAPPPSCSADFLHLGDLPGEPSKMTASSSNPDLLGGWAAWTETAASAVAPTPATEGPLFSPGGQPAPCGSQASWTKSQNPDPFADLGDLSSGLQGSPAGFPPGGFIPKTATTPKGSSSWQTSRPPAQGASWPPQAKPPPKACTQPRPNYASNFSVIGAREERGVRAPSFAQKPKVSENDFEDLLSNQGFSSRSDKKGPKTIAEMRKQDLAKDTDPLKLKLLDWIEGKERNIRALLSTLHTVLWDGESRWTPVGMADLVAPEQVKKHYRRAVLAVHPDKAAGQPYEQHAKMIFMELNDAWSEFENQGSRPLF

[2] = biological target: BMP2K (BMP-2-inducible protein kinase) (Homo sapiens, UniProt Q9NSY1); assay: Kinase binding displacement assay; conditions: no ATP present
[3] = biological target: STK16 (Serine/threonine-protein kinase 16) (Homo sapiens, UniProt O75716); assay: Kinase binding displacement assay; conditions: no ATP present
[4] = biological target: AAK1 (Adaptor-associated protein kinase 1) (Homo sapiens, UniProt Q2M2I8); assay: Kinase binding displacement assay; conditions: no ATP present
DYRK3 (h) = biological target: T2, DYRK3 (h) (Homo sapiens, UniProt O43781); assay: Biochemical kinase assay (CEREP); conditions: for IC50: 10 μM ATP, performed by CEREP
T2 sequence (O43781 1-588): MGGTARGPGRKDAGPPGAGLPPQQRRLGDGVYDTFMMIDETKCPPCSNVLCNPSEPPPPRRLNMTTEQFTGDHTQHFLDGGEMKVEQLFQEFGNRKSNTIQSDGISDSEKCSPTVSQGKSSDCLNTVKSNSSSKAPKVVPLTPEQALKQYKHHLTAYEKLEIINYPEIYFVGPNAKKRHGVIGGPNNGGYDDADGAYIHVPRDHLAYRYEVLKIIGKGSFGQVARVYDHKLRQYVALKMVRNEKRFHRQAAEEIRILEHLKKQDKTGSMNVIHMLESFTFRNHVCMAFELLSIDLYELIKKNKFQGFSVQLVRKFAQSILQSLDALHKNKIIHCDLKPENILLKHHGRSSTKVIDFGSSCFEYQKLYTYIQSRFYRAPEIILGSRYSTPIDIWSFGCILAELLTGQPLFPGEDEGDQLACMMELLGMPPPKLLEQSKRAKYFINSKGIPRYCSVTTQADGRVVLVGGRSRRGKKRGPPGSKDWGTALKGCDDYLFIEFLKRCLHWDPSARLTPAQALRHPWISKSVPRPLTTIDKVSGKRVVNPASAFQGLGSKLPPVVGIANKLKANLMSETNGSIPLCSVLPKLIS

[5] = tested on: MCF7 and T47D breast cancer cell; assay: Cell proliferation assay (range over both lines); assay type: cell-based; conditions: range over both compounds and both cell lines; read-out: GC50 values, MCF7 and T47D (range)
From the text: (§1) The synthesized compounds were next tested in breast cancer and non-transformed breast cell lines.

MCF7 = assay: Cell proliferation assay; assay type: cell-based; conditions: Homo sapiens, 50% reduction in cellular proliferation vs DMSO-treated control, read-out: GC50 MCF7
From the text: as §1

T47D = assay: Cell proliferation assay; assay type: cell-based; conditions: Homo sapiens, 50% reduction in cellular proliferation vs DMSO-treated control, read-out: GC50 T47D
From the text: as §1

Sequence of FLT-4 (h) (VEGFR3) (P35916 25-1363): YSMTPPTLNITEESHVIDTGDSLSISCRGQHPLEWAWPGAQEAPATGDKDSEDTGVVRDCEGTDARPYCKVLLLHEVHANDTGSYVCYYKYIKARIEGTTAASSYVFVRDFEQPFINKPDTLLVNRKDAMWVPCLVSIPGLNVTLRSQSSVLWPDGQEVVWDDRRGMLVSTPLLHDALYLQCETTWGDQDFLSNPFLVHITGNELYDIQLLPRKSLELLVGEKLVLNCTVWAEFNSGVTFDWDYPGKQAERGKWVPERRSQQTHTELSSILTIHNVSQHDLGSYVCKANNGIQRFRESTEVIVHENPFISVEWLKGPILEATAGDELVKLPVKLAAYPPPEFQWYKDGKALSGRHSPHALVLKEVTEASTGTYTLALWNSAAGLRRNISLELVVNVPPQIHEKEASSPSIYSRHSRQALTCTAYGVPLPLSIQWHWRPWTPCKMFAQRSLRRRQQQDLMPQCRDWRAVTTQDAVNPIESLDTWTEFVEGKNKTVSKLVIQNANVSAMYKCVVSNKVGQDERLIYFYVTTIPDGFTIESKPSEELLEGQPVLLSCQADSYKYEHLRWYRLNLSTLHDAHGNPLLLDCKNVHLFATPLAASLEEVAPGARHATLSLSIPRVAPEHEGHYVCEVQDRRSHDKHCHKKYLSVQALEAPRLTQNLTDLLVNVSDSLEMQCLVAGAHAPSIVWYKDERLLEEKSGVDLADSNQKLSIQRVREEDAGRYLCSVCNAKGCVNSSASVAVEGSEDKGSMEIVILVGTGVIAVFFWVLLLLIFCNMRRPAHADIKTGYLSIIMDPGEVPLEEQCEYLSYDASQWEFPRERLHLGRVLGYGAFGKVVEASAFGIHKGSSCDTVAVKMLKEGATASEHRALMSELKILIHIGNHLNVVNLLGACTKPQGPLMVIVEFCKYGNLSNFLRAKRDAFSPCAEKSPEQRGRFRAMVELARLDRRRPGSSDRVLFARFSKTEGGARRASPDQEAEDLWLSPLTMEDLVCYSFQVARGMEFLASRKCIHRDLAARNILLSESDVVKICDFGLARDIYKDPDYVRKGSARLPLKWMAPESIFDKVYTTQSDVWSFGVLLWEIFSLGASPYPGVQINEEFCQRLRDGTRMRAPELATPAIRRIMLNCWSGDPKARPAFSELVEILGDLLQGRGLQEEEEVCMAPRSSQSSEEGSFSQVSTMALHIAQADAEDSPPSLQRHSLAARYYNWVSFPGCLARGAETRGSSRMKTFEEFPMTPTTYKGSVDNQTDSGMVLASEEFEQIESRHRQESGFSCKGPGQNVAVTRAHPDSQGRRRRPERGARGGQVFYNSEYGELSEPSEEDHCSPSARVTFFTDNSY
Sequence of AAK1 (Adaptor-associated protein kinase 1) (Q2M2I8 whole entry, species assumed): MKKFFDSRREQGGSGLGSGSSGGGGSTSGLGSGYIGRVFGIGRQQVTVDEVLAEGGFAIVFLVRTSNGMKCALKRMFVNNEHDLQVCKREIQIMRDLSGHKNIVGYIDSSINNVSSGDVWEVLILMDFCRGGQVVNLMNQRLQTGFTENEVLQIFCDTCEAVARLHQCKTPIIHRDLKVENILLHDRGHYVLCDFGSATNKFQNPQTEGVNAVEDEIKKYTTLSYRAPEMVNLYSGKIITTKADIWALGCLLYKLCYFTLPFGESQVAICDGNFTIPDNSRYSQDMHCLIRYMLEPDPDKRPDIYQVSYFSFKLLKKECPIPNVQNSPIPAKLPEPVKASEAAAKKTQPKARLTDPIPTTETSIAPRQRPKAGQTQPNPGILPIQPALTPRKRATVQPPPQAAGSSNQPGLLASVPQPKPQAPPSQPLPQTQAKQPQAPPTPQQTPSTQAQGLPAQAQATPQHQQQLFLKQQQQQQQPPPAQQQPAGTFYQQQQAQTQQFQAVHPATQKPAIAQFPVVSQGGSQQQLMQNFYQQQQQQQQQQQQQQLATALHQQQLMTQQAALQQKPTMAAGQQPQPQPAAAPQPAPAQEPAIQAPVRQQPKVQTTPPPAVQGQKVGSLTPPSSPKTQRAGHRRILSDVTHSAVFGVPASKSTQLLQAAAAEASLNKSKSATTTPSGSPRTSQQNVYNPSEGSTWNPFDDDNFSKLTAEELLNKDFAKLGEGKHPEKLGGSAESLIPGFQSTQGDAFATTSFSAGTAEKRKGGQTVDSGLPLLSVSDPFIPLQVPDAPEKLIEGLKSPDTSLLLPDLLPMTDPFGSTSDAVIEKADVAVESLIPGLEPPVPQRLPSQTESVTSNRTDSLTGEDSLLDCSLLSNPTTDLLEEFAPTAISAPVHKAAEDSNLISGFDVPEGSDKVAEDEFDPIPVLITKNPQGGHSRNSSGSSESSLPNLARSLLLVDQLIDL
Sequence of BMP2K (BMP-2-inducible protein kinase) (Q9NSY1 whole entry, species assumed): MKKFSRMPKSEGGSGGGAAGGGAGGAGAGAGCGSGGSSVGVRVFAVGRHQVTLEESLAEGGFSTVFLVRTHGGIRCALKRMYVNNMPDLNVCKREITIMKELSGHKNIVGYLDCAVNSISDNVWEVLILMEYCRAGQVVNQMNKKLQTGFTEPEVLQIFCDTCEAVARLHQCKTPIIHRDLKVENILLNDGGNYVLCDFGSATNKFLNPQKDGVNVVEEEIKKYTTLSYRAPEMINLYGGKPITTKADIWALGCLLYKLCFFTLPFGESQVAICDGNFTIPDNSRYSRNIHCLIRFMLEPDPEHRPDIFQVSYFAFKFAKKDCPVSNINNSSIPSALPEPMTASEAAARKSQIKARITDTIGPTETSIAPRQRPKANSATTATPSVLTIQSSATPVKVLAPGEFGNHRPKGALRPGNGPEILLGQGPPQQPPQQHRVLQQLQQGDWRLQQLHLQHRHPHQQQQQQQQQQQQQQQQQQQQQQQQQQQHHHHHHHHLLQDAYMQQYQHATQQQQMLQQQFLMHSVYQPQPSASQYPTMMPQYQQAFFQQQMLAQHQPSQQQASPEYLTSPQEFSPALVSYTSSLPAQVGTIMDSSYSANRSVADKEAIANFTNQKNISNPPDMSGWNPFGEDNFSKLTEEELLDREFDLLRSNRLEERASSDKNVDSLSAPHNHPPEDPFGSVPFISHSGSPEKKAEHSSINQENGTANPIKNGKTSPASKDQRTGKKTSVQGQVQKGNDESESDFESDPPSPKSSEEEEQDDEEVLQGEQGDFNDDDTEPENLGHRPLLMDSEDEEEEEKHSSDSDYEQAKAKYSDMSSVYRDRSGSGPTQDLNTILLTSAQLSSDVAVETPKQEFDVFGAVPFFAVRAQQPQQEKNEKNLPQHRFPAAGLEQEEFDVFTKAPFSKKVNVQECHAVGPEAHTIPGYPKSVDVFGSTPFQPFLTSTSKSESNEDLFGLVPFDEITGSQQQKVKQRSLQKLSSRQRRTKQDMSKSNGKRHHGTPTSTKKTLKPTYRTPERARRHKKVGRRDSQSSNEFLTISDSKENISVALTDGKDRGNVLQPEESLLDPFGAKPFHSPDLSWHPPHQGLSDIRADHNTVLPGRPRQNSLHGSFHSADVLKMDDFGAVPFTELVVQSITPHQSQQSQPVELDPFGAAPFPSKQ
Sequence of STK16 (Serine/threonine-protein kinase 16) (O75716 whole entry, species assumed): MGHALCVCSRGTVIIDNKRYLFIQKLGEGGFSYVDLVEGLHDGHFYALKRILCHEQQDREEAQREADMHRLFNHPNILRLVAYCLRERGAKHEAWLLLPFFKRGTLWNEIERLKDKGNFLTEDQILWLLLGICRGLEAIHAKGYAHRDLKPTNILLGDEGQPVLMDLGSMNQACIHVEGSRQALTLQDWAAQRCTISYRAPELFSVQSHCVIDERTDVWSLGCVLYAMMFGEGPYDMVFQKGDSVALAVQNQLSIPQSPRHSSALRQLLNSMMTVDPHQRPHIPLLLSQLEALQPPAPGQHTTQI
Sequence of PDGFRα (h) (P16234 24-1089): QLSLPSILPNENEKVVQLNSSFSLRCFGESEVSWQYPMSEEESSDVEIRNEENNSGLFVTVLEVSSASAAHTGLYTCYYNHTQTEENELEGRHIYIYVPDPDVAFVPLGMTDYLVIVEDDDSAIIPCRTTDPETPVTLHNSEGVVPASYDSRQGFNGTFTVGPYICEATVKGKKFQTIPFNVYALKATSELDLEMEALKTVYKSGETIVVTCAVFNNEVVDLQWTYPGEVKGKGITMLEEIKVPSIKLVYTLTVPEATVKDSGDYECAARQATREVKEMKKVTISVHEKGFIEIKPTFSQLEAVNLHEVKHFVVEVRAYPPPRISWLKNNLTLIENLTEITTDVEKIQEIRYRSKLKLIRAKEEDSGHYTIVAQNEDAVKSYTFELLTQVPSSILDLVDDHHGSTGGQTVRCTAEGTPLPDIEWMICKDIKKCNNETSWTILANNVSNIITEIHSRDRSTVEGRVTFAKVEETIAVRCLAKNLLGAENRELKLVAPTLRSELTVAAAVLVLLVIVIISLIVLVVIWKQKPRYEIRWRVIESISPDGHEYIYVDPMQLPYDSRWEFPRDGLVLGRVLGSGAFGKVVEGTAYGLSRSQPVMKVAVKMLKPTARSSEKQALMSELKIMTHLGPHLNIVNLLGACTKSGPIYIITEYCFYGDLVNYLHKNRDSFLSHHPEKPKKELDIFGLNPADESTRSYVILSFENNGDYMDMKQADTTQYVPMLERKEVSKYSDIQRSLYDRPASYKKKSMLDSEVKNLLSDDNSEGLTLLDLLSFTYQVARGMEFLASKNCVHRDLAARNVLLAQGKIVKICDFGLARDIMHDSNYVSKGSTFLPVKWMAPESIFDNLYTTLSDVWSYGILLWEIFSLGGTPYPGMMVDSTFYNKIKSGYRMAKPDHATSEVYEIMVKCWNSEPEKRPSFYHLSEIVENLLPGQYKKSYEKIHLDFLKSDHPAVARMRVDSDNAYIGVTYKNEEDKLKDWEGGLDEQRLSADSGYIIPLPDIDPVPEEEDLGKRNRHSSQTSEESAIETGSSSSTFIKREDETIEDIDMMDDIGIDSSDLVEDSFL

Compound: Cc1[nH]c(/C=C2\C(=O)Nc3cc(S(F)(F)(F)(F)F)ccc32)c(C)c1CCC(=O)O [Compound 14, (Z)-3-(2,4-Dimethyl-5-((6-pentafluorosulfanyl-2-oxoindolin-3-ylidene)methyl)-1H-pyrrol-3-yl)propanoic acid]
- IC50 vs. VEGFR3 (FLT-4 (h) (VEGFR3)): low nM potency
- IC50 (FLT-4 (h) (VEGFR3)): 0.018 µM
- IC50 vs. PDGFRα (PDGFRα (h)): low nM potency
- IC50 (PDGFRα (h)): 0.0031 µM
- IC50 [1]: > 1 µM
- IC50 [2]: > 1 µM
- IC50 [3]: > 1 µM
- IC50 [4]: > 1 µM
- IC50 (DYRK3 (h)): > 1 µM

Compound: Cc1[nH]c(/C=C2\C(=O)Nc3ccc(S(F)(F)(F)(F)F)cc32)c(C)c1CCC(=O)O [Compound 13, (Z)-3-(2,4-Dimethyl-5-((5-pentafluorosulfanyl-2-oxoindolin-3-ylidene)methyl)-1H-pyrrol-3-yl)propanoic acid]
- IC50 (FLT-4 (h) (VEGFR3)): 0.53 µM
- IC50 (PDGFRα (h)): > 1 µM
- IC50 [1]: > 1 µM
- IC50 [2]: > 1 µM
- IC50 [3]: > 1 µM
- IC50 [4]: > 1 µM
- IC50 (DYRK3 (h)): > 1 µM

Compound: O=C1Nc2ccc(S(F)(F)(F)(F)F)cc2/C1=C/c1ccc[nH]1 [Compound 10, (Z)-3-(1H-Pyrrol-2-yl)methylene-5-pentafluorosulfanylindoline-2-one]
- IC50 (FLT-4 (h) (VEGFR3)): > 1 µM
- IC50 (PDGFRα (h)): > 1 µM
- IC50 [1]: 34.2 µM
- IC50 [5]: 0.35 to 3.8 µM
- IC50 [2]: 0.452 µM
- IC50 [3]: 17.6 µM
- IC50 [4]: 1 µM
- IC50 (MCF7): 4.8 ± 1 µM
- IC50 (T47D): 0.49 ± 0.4 µM
- IC50 (DYRK3 (h)): > 1 µM

Compound: O=C1Nc2cc(S(F)(F)(F)(F)F)ccc2/C1=C/c1ccc[nH]1 [Compound 11, (Z)-3-(1H-Pyrrol-2-yl)methylene-6-pentafluorosulfanylindoline-2-one]
- IC50 (FLT-4 (h) (VEGFR3)): 0.23 µM
- potency vs. PDGFRα (PDGFRα (h)): 0.098 µM
- IC50 (PDGFRα (h)): 0.098 µM
- IC50 [1]: 0.476 µM
- IC50 [5]: 0.35 to 3.8 µM
- IC50 [2]: 187 µM
- IC50 [3]: 135 µM
- IC50 [4]: 1000 µM
- IC50 (MCF7): 0.69 ± 0.4 µM
- IC50 (T47D): 0.35 ± 0.1 µM
- IC50 (DYRK3 (h)): > 1 µM

Compound: 5-Pentafluorosulfanyl-3-ferrocenylindolin-2-one [Compound 12a]
- IC50 (FLT-4 (h) (VEGFR3)): > 1 µM
- IC50 (PDGFRα (h)): > 1 µM
- inhibition of DYRK3 (DYRK3 (h)): low micromolar range
- IC50 (DYRK3 (h)): 1.7 µM

Compound: 5-Pentafluorosulfanyl-3-ferrocenylindolin-2-one [Compound 12b]
- IC50 (FLT-4 (h) (VEGFR3)): > 1 µM
- IC50 (PDGFRα (h)): > 1 µM
- inhibition of DYRK3 (DYRK3 (h)): low micromolar range
- IC50 (DYRK3 (h)): 2.4 µM

— publication PMC5708334, “Synthesis of kinase inhibitors containing a pentafluorosulfanyl moiety” (Organic & Biomolecular Chemistry, 2017)
